From patent US11584763B2, “Chromenopyridine derivatives as phosphatidylinositol phosphate kinase inhibitors” (HIBERCELL, INC., priority 2017, dated 2023) come the findings set out here.

Molecules are shown by their SMILES. Bounds are passed on as bounds.

In test [1] the target is T1, PIP4K2B (Homo sapiens, UniProt P78356).
T1 construct: made in house; host or cells: E. coli
T1 sequence (P78356 1-416): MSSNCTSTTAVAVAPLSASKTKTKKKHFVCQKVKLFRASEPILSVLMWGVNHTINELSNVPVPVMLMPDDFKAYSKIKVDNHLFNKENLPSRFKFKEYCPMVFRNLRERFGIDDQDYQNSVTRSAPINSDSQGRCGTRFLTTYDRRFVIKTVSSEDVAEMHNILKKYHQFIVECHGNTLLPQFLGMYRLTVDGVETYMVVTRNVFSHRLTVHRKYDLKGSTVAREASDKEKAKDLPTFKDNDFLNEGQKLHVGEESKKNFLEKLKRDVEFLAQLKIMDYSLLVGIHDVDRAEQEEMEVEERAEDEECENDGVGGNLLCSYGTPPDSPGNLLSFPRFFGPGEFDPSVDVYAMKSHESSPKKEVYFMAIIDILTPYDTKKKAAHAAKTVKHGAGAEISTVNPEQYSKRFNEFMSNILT
Briefly: Trans-FI P kinase assay PIP4K2B (PIP4KtypeIIB inhibition assay). In kind it is biochemical. To be noted: compounds listed under IC50 bin headings; 100 uM GTP; read-out: Trans-FI P kinase assays: PIP4K2B IC50. The essentials:
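GST-tagged human PIP4K2B (5 nM, E. coli-expressed) preincubated 1 h at 27 C with compound (top 4.8 uM, 5% DMSO), then reacted 2 h with 100 uM GTP and 80 uM PI5P/DOPE vesicles in HEPES pH 7.3, MgCl2, Triton X-100. GDP detected by Transcreener FI fluorescence via calibration curve; IC50 from % activity vs log[inhibitor].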

The target of test [2] is T2, PIP4K 2A (Homo sapiens, UniProt P48426).
T2 sequence (P48426 1-406): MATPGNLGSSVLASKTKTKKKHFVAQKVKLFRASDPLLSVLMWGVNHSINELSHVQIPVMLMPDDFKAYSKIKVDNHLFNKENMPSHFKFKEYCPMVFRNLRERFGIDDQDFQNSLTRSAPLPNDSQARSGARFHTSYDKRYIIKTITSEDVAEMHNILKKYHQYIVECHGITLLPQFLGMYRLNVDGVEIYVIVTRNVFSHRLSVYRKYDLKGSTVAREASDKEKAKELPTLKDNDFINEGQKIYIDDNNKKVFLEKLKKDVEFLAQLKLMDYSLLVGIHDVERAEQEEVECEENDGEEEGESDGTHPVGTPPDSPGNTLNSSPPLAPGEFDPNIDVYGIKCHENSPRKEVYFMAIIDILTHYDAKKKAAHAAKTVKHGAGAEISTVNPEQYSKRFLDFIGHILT
Briefly: ADP-glo kinase assay PIP4K 2A. In kind it is biochemical. Set-up: 4 nM PIP4K2A (full length protein, SignalChem); purchased SignalChem. To be noted: compounds listed under IC50 bin headings. In short, it runs like this:
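Full-length PIP4K2A was pre-incubated 15 min at RT with compound in 20 mM MOPS pH 7.2, 25 mM MgCl2, 0.005% Tween 20. The enzyme mix held 4 nM kinase and 100 μM PI(5)P diC8, and ATP was added from a 60 μM solution. After 1 h at RT, ADP-Glo luminescence gave % inhibition versus DMSO, fitted to IC50 over 10 threefold dilutions.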

Consider `CC1(C)Oc2cc(N3CCCC3=O)ccc2-c2cnc(Nc3cnc4c(c3)N3C(=O)CC[C@H]3CO4)nc21` [Example 189, (S)-2-((5,5-dimethyl-8-(2-oxopyrrolidin-1-yl)-5H-chromeno[3,4-d]pyrimidin-3-yl)amino)-6,6a,7,8-tetrahydro-9H-pyrido[2,3-b]pyrrolo[1,2-d][1,4]oxazin-9-one], for which the IC50 in test [1] is 1 to 10 nM; in test [2], no more than 1 nM.

As to `CC1(C)Oc2cc(N3CCCC3=O)c(F)cc2-c2cnc(Nc3cnc4c(c3)N3C(=O)CC[C@H]3CO4)nc21` [Example 190, (S)-2-((9-fluoro-5,5-dimethyl-8-(2-oxopyrrolidin-1-yl)-5H-chromeno[3,4-d]pyrimidin-3-yl)amino)-6,6a,7,8-tetrahydro-9H-pyrido[2,3-b]pyrrolo[1,2-d][1,4]oxazin-9-one], the IC50 in test [1] is 1 to 10 nM; in test [2], no more than 1 nM.

`COc1ncc(Nc2cc3c(cn2)-c2ccc(N4CCCC4=O)cc2OC3(C)C)cc1NC(C)=O` [Example 191, N-(5-((5,5-dimethyl-8-(2-oxopyrrolidin-1-yl)-5H-chromeno[4,3-c]pyridin-3-yl)amino)-2-methoxypyridin-3-yl)acetamide]: the 50% inhibitory concentration (IC50) in test [1] and in test [2] was 100 to 1000 nM throughout.

On to `CC1Oc2cc(N3CCCC3=O)ccc2-c2cnc(Nc3cncc(NC(=O)c4cccc5[nH]cnc45)c3)cc21` (stereo not drawn) [Example 196, N-(5-((5-methyl-8-(2-oxopyrrolidin-1-yl)-5H-chromeno[4,3-c]pyridin-3-yl)amino)pyridin-3-yl)-1H-benzo[d]imidazole-7-carboxamide], for which the IC50 in test [1] lay in the range of 10 to 100 nM; in test [2] it was 1 to 10 nM.

`O=C1CCCN1c1ccc(-c2ccc(Nc3cnc4c(c3)N3C(=O)C5(CC5)C[C@H]3CO4)nc2)cc1F` [Example 197, (S)-2′-((5-(3-fluoro-4-(2-oxopyrrolidin-1-yl)phenyl)pyridin-2-yl)amino)-6a′,7′-dihydro-6′H,9′H-spiro[cyclopropane-1,8′-pyrido[2,3-b]pyrrolo[1,2-d][1,4]oxazin]-9′-one]: the IC50 in test [1] and in test [2] was 1 to 10 nM throughout.

With `CN(C)C/C=C/C(=O)Nc1ccc(C(=O)Nc2cncc(Nc3cc4c(cn3)-c3ccc(N5CCCC5=O)cc3OC4(C)C)c2)cc1` [Example 198, (E)-N-(5-((5,5-dimethyl-8-(2-oxopyrrolidin-1-yl)-5H-chromeno[4,3-c]pyridin-3-yl)amino)pyridin-3-yl)-4-(4-(dimethylamino)but-2-enamido)benzamide], the IC50 in test [1] and in test [2] was 1 to 10 nM each time.

Consider `CN(C)C/C=C/C(=O)Nc1cccc(CCC(=O)Nc2cncc(Nc3cc4c(cn3)-c3ccc(N5CCCC5=O)cc3OC4(C)C)c2)c1` [Example 199, (E)-N-(3-(3-((5-((5,5-dimethyl-8-(2-oxopyrrolidin-1-yl)-5H-chromeno[4,3-c]pyridin-3-yl)amino)pyridin-3-yl)amino)-3-oxopropyl)phenyl)-4-(dimethylamino)but-2-enamide], for which the IC50 is 10 to 100 nM in test [1] and 1 to 10 nM in test [2].

Take `CN(C)C/C=C/C(=O)Nc1ccc(C(=O)Nc2cncc(Nc3cc4c(cn3)-c3ccc(N5CCCC5=O)cc3OC4)c2)cc1` [Example 200, (E)-4-(4-(dimethylamino)but-2-enamido)-N-(5-((8-(2-oxopyrrolidin-1-yl)-5H-chromeno[4,3-c]pyridin-3-yl)amino)pyridin-3-yl)benzamide]: the half-inhibitory concentration (IC50) in test [1] and in test [2] was 1 to 10 nM throughout.

With `CC1Oc2cc(N3CCCC3=O)ccc2-c2cncc(Nc3ccncc3)c21` (stereo not drawn) [Example 203, 1-(5-methyl-4-(pyridin-4-ylamino)-5H-chromeno[4,3-c]pyridin-8-yl)pyrrolidin-2-one], the IC50 in test [1] and in test [2] was greater than 1000 nM each time.

`CC1Oc2cc(N3CCCC3=O)c(F)cc2-c2cnc(Nc3cnc4c(c3)N3C(=O)[C@](C)(O)C[C@H]3CO4)cc21` (stereo partly drawn) [Example 204, (6aS,8R)-2-((9-fluoro-5-methyl-8-(2-oxopyrrolidin-1-yl)-5H-chromeno[4,3-c]pyridin-3-yl)amino)-8-hydroxy-8-methyl-6,6a,7,8-tetrahydro-9H-pyrido[2,3-b]pyrrolo[1,2-d][1,4]oxazin-9-one]: the IC50 in test [1] was in the range of 10 to 100 nM; in test [2], 1 to 10 nM.

On to `CC1Oc2cc(N3CCCC3=O)ccc2-c2cnc(Nc3cnc4c(c3)N3C(=O)[C@](C)(O)C[C@H]3CO4)cc21` (stereo partly drawn) [Example 205, (6aS,8R)-8-hydroxy-8-methyl-2-((5-methyl-8-(2-oxopyrrolidin-1-yl)-5H-chromeno[4,3-c]pyridin-3-yl)amino)-6,6a,7,8-tetrahydro-9H-pyrido[2,3-b]pyrrolo[1,2-d][1,4]oxazin-9-one], for which the half-inhibitory concentration (IC50) in test [1] and in test [2] was 10 to 100 nM in each case.

Take `CC1Oc2cc(N3CCCC3=O)ccc2-c2cnc(Nc3cnc4c(c3)N3C(=O)C(O)C[C@H]3CO4)cc21` (stereo partly drawn) [Example 206, (6aS)-8-hydroxy-2-((5-methyl-8-(2-oxopyrrolidin-1-yl)-5H-chromeno[4,3-c]pyridin-3-yl)amino)-6,6a,7,8-tetrahydro-9H-pyrido[2,3-b]pyrrolo[1,2-d][1,4]oxazin-9-one]: the half-maximal inhibitory concentration (IC50) in test [1] was 1 to 10 nM; in test [2], no more than 1 nM.

By IC50 is commonly meant the midpoint of a concentration-inhibition curve.
